The text below walks through data of DBAASP.

Holding throughout (experiment): ≥ marks a high value that may be exact or a test limit, other limits are often not marked, values filed in µg/mL are converted to µM
Test [1] has as its system Staphylococcus aureus ATCC 25923.
In test [2] the test system is Pseudomonas aeruginosa ATCC 10145.
Test [3] concerns Bacillus cereus NCLM 2156.
Test [4] has as its system Escherichia coli NCLM 2064.
Test [5] concerns Vibrio cholerae PL91.
Test [6] concerns Pseudomonas aeruginosa ATCC 15442.
Test [7] concerns Streptococcus pneumoniae.
For test [8], the system named is Klebsiella pneumoniae.
Test [9] relates to Enterobacter cloacae.
The test system of test [10] is Acinetobacter baumannii ATCC 15308.
In test [11] the test system is Staphylococcus aureus.
The subject of test [12] is Citrobacter sp.
Test [13] has as its system Escherichia coli ATCC 25922.
In test [14] the test system is Staphylococcus aureus ATCC 33591.
Test [15] deals with Staphylococcus aureus RN4220.
The subject of test [16] is Staphylococcus aureus NCTC 12493.
The subject of test [17] is Klebsiella pneumoniae ATCC 700603.
Test [18] deals with Pseudomonas aeruginosa Q12-0535.
The test system of test [19] is Campylobacter jejuni ATCC 33292.
Test [20] has as its system Acinetobacter baumannii Q12-0867.
For test [21], the system named is Pseudomonas aeruginosa Q14-0890.
Test [22] has as its system Pseudomonas aeruginosa PAO1.
Test [23] relates to Pseudomonas aeruginosa ATCC 27853.
In test [24] the test system is Klebsiella pneumoniae Q14-0095.
The test system of test [25] is Staphylococcus aureus MRSA-15.
For test [26], the system named is Klebsiella pneumoniae Q14-0285.
The subject of test [27] is Escherichia coli.
In test [28] the test system is Campylobacter jejuni NCTC 11161.
Test [29] has as its system Listeria monocytogenes NCTC 11994.
In test [30] the test system is Enterococcus faecalis JH-2-2.
Test [31] has as its system Staphylococcus aureus USA 300.
The test system of test [32] is Staphylococcus aureus Q14-0320.
In test [33] the test system is Pseudomonas aeruginosa Q14-0208.
The subject of test [34] is Escherichia coli K-12.
The test system of test [35] is Staphylococcus aureus ATCC 29213.
In test [36] the test system is Campylobacter jejuni NCTC 11351.
Test [37] concerns Acinetobacter baumannii Q13-0717.
The test system of test [38] is Acinetobacter baumannii Q12-0809.
Test [39] relates to Salmonella typhimurium SL1344.
The test system of test [40] is Klebsiella pneumoniae NCTC 13442.

A word on the MIC: it is the smallest concentration in the dilution series that meets the test's criterion for growth inhibition.

Values after ≈ are worked out from the molar mass of the structure shown. A value given as a limit tells only on which side of the number the result lay.

`CC[C@H](C)[C@H](NC(=O)[C@H](CCCCN)NC(=O)[C@@H](NC(=O)[C@H](CC(C)C)NC(=O)[C@@H]1CCCN1C(=O)CNC(=O)[C@H](Cc1ccccc1)NC(=O)[C@@H](N)Cc1ccccc1)[C@@H](C)CC)C(=O)N[C@@H](C)C(=O)N[C@H](C(=O)NCC(=O)N[C@H](C(=O)N[C@@H](CC(C)C)C(=O)N1CCC[C@H]1C(=O)N[C@@H](CC(N)=O)C(=O)N[C@@H](CC(C)C)C(=O)N[C@H](C(=O)N[C@H]1CSSC[C@@H](C(=O)O)NC(=O)[C@H](CCCCN)NC(=O)CNC(=O)[C@H](CC(C)C)NC(=O)[C@H](C)NC(=O)[C@H](CCCCN)NC1=O)[C@@H](C)CC)C(C)C)[C@@H](C)O` [FFGPLIKIATGVLPNLICKALGKC]: the MIC was above 59.6 µM in [1]; at least 59.6 µM in test [2]; at least 39.7 µM in [3]; 11.9 µM (≈ 30 µg/mL) in test [4]; at least 59.6 µM in test [5].
For `CC[C@H](C)[C@H](NC(=O)[C@H](CC(C)C)NC(=O)CNC(=O)CNC(=O)[C@H](CC(C)C)NC(=O)[C@@H](N)Cc1ccccc1)C(=O)N[C@@H](CCCCN)C(=O)N[C@@H](CCCCN)C(=O)N[C@@H](Cc1c[nH]c2ccccc12)C(=O)N1CCC[C@H]1C(=O)N[C@@H](Cc1c[nH]c2ccccc12)C(=O)N[C@@H](Cc1c[nH]c2ccccc12)C(=O)N1CCC[C@H]1C(=O)N[C@@H](Cc1c[nH]c2ccccc12)C(=O)N[C@@H](CCCN=C(N)N)C(=O)N[C@@H](CCCN=C(N)N)C(N)=O` [FLGGLIKKWPWWPWRR], the MIC is 3.67 µM (≈ 7.81 µg/mL) in test [1]; 14.7 µM (≈ 31.2 µg/mL) in [6]; 3.67 µM (≈ 7.81 µg/mL) in test [7]; above 118 µM in [8]; at least 118 µM in test [9]; 14.7 µM (≈ 31.2 µg/mL) in [10]. Moreover, the figures for the MIC in test [11], in [12] and in [13] were 3.67 µM (≈ 7.81 µg/mL), at least 118 µM and 3.67 µM (≈ 7.81 µg/mL), respectively.
As for `CC(C)C[C@H](NC(=O)[C@H](CS)NC(=O)[C@H](CC(C)C)NC(=O)[C@H](CCCN=C(N)N)NC(=O)[C@H](Cc1c[nH]c2ccccc12)NC(=O)[C@@H]1CCCN1C(=O)[C@@H](NC(=O)[C@H](CCCN=C(N)N)NC(=O)[C@H](CCCN=C(N)N)NC(=O)[C@H](Cc1ccccc1)NC(=O)[C@H](CCCN=C(N)N)NC(=O)[C@H](C)NC(=O)[C@@H](NC(=O)[C@H](Cc1ccccc1)NC(=O)[C@H](CCCN=C(N)N)NC(=O)[C@@H](N)CC(N)=O)[C@@H](C)O)[C@@H](C)O)C(=O)N[C@@H](CCC(N)=O)C(=O)N[C@@H](Cc1ccccc1)C(=O)N[C@@H](CCCN=C(N)N)C(=O)N[C@@H](CCC(N)=O)C(=O)O` [NRFTARFRRTPWRLCLQFRQ], the MIC is 24.1 µM (≈ 64 µg/mL) in test [14]; 12.1 µM (≈ 32 µg/mL) in test [15]; 24.1 µM (≈ 64 µg/mL) in [16]; 12.1 µM (≈ 32 µg/mL) in test [17]; at least 48.2 µM in [18]; 24.1 µM (≈ 64 µg/mL) in test [19]. Moreover, the MIC in [20] was found to be 3.02 µM (≈ 8 µg/mL); in test [21], 6.03 µM (≈ 16 µg/mL); in test [22], 12.1 µM (≈ 32 µg/mL); in test [23], 48.2 µM (≈ 128 µg/mL); in [24], 12.1 µM (≈ 32 µg/mL); in [25] it was 12.1 µM (≈ 32 µg/mL). In addition, the MIC is 24.1 µM (≈ 64 µg/mL) in test [26]; 48.2 µM (≈ 128 µg/mL) in [27]; at least 96.5 µM in test [28]; 12.1 µM (≈ 32 µg/mL) in test [29]; 24.1 µM (≈ 64 µg/mL) in [30]; 24.1 µM (≈ 64 µg/mL) in [31]. The MIC is at least 48.2 µM in test [32]; 12.1 µM (≈ 32 µg/mL) in [33]; 24.1 µM (≈ 64 µg/mL) in test [34]; 48.2 µM (≈ 128 µg/mL) in test [35]; at least 48.2 µM in test [36]; 12.1 µM (≈ 32 µg/mL) in [37]. The figures for the MIC in test [38], in test [39] and in [40] were 6.03 µM (≈ 16 µg/mL), 24.1 µM (≈ 64 µg/mL) and 12.1 µM (≈ 32 µg/mL), respectively.
